{"source": "paper PMC9824695", "about": "(Molecules, 2023)", "key": {"[1]": {"target": "human mu opioid receptor (CHOhMOP) (Homo sapiens, UniProt P35372)", "sequence (P35372 whole entry)": "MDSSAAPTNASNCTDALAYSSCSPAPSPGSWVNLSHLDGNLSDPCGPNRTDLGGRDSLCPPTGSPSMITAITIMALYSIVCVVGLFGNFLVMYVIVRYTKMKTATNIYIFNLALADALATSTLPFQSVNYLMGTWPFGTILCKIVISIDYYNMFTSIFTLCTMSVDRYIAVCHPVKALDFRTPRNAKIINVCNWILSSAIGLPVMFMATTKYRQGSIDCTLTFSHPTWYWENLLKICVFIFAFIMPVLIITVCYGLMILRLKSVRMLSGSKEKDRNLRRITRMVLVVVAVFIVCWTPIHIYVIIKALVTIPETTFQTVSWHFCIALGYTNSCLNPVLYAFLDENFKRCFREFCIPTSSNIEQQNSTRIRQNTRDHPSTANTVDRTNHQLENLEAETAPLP", "experiment": "cell-based"}, "[2]": {"system": "male Kunming mice", "experiment": "Conditioned place preference", "assay_type": "in vivo, mouse (Kunming)", "conditions": "10 mg/kg s.c.", "description": "The conditioned place preference experiment is a classical model for evaluating dependence. The device consisted of three compartments. Two large compartments (20 × 20 × 20 cm) were connected by a narrower compartment (5 × 20 × 20 cm). The large compartments were visually and tactually distinct (white walls with rough floors and black walls with smooth floors). Before the unbiased experiment, the mice were allowed to move freely for 15 min to accommodate the apparatus. On the first day, the time the mice spent in each compartment was documented within 15 min. Over the next 3 days, the mice were subcutaneously administered drugs and were limited to one of the two large compartments. Approximately 6 h later, the mice were subcutaneously injected with saline and confined to the opposite compartment. On the fifth day, the mice moved freely for 15 min, and the time spent in the drug-associated preference compartment was recorded. The conditioned place preference score was calculated as: score = time spent in the drug-associated preference compartment on the fifth day − time spent in the same compartment on the first day."}, "[3]": {"system": "male Kunming mice", "experiment": "Gastrointestinal transit test (charcoal meal)", "assay_type": "in vivo, mouse (Kunming)", "conditions": "10 mg/kg s.c.; for GIT%: 15 min before charcoal meal, 30 min, p < 0.05, lower = stronger inhibition", "description": "The mice were fasted for 16 h with free access to water. Drugs were subcutaneously injected 15 min before the oral administration of a charcoal meal (an aqueous suspension of 5% charcoal and 10% gum arable). Thirty minutes after the oral administration, the animals were sacrificed. The farthest traveled distance by the charcoal meal (L1) and total length of the small intestine (L2) were measured. The GIT inhibition by analgesics was represented by GIT% = (L1/L2) × 100."}, "[4]": {"system": "male Kunming mice", "experiment": "Rotarod test", "assay_type": "in vivo, mouse (Kunming)", "conditions": "10 mg/kg s.c.; compared with saline"}, "[5]": {"experiment": "Blood-brain barrier penetration", "conditions": "inferred from naloxone methiodide s.c. vs i.c.v. antagonism in mice"}, "[6]": {"conditions": "15% mouse brain homogenate; cited from earlier work"}, "[7]": {"system": "human sperm", "experiment": "Human sperm motility in vitro", "conditions": "0.0001, 0.001, 0.01, 0.1, 1, or 10 µM, 4-h incubation, 37 °C, n = 5"}, "[8]": {"system": "male Kunming mice", "experiment": "Acute hyperlocomotion test (open field)", "conditions": "10 mg/kg s.c.; 150 min"}, "[9]": {"target": "human delta opioid receptor (CHOhDOP) (Homo sapiens, UniProt P41143)", "sequence (P41143 whole entry)": "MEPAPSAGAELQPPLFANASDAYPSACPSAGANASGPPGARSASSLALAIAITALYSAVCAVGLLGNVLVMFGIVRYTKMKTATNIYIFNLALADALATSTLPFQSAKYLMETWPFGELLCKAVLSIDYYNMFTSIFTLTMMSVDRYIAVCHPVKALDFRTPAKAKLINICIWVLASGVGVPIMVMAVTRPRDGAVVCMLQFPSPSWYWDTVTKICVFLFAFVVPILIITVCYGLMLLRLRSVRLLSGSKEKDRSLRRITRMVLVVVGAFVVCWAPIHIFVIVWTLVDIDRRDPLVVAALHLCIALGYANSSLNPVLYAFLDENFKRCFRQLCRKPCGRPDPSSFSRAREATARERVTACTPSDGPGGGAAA", "experiment": "Calcium mobilization assay, CHOhDOP cells"}, "[10]": {"system": "male Kunming mice", "experiment": "Antinociceptive tolerance (tail-flick, 8 days)", "conditions": "10 mg/kg s.c. once a day"}, "[11]": {"system": "male Kunming mice", "experiment": "Naloxone-induced withdrawal response (jumping)", "conditions": "10 mg/kg s.c.; method: 20, 40, 60, 80, 100, 100, 100 mg/kg every 8 h, naloxone 10 mg/kg"}, "[12]": {"system": "male Kunming mice", "experiment": "Radiant heat tail-flick test", "assay_type": "in vivo, mouse (Kunming)", "conditions": "for ED50: Mus musculus, sc", "description": "The radiant heat tail-flick test has been widely used as an acute pain model to examine the effects of analgesics. The mice were gently stabilized by hand, and the dorsal surface of the tail, 3 cm from the distal end, was placed on a radiant heat source. The cutoff time was set to 10 s to avoid tissue damage. Radiant heat intensity was adapted to engender a basal latency within 3–5 s in naive mice. Tail-flick latency was defined as the time when the mouse flicked its tail away from the radiant heat source. The data of antinociceptive effects for each animal after treatment were calculated as a percentage of the maximal possible effect (MPE%): MPE (%) = 100 × [(postdrug response − baseline response)/(cutoff response − baseline response)]. The MPE% from each animal was converted to an area under the curve (AUC).\nStatistical significance was set at p < 0.05."}, "[13]": {"system": "male Kunming mice", "experiment": "Carrageenan-induced inflammatory pain", "assay_type": "in vivo, mouse (Kunming)", "conditions": "s.c."}, "[14]": {"system": "male Kunming mice", "experiment": "Acetic acid-induced writhing test", "assay_type": "in vivo, mouse (Kunming)", "conditions": "0.6% acetic acid i.p.", "description": "An acetic acid-induced writhing test was performed to investigate visceral pain [43]. The increase in intensity of drug analgesia would be accompanied by a decrease in the writhing number. The mice were acclimatized in a transparent acrylic chamber (20 × 20 × 30 cm) for 15–20 min. First, the mice were subcutaneously injected with drugs. Five minutes later, they were intraperitoneally injected with 0.6% acetic acid solution. Within 5–15 min after injecting acetic acid, the number of writhes was recorded. Writhe was defined as a contraction of the abdominal muscles and stretching of the hind limbs."}, "[15]": {"system": "male Kunming mice", "experiment": "Formalin test", "assay_type": "in vivo, mouse (Kunming)", "conditions": "phase I 0–5 min", "description": "The formalin test was conducted to explore a characteristic biphasic pain response. The better the analgesic effect in mice, the shorter the average licking/biting/shaking paw time. The mice were acclimated in a transparent plexiglass chamber (20 × 20 × 30 cm) for 15–20 min. First, the mice received a subcutaneous injection of drugs. Five minutes later, 20 μL of 5% formalin was administered by intraplantar injection to the right hind paw. The mice were immediately placed back in the chamber. Simultaneously, the time spent licking, biting, and shaking the injected paw was recorded within 0–5 and 15–30 min."}, "[16]": {"target": "MOR", "conditions": "cited from earlier work"}, "[17]": {"target": "DOR", "conditions": "cited from earlier work"}, "[18]": {"target": "KOR", "conditions": "cited from earlier work", "description": "Table 2 The actions of agonists and antagonists at opioid receptors. | column: Ki^(KOR) (nM)"}, "[19]": {"system": "opioid receptors", "conditions": "cited from earlier work"}, "[20]": {"conditions": "cited from earlier work"}, "[21]": {"system": "mice", "parameters": "method as in 2 sources, ref 9 = [9]; PMID 9087409; doi:10.1038/386499a0; 9. Zadina J.E. Hackler L. Ge L.-J. Kastin A.J.J.N. A potent and selective endogenous agonist for the µ-opiate receptor Nature 1997 386 499 502 10.1038/386499a0 9087409 ||| ref 16 = [16]; PMID 31444977; doi:10.1111/bph.14848; 16. Xu B. Zhang M. Shi X. Zhang R. Chen D. Chen Y. Wang Z. Qiu Y. Zhang T. Xu K. The multifunctional peptide DN-9 produced peripherally acting antinociception in inflammatory and neuropathic pain via", "conditions": "cited from earlier work"}}, "note": "Entries after “also recorded” stand apart in the source; their conditions may differ. Read-outs that look alike come from different tables or passages of the source.", "data": [{"compound": "C[C@@H](NC(=O)[C@@H](N)Cc1ccc(O)cc1)C(=O)NCC(=O)N[C@@H](Cc1ccccc1)C(N)=O", "note": "[HAGD, H-Tyr-D-AIa-GIy-Phe-NH2]", "values": [{"measurement": "Emax", "setting": "[1]", "value": "103 ± 1.58", "unit": "%"}, {"measurement": "EC50", "setting": "[1]; CHOhMOP, duplicate, repeated at least three times", "value": 81.7, "unit": "nM"}, {"measurement": "conditioned place preference (in words)", "setting": "[2]", "value": "did not induce a place preference change; also recorded: substantial difference in the conditioned place preference scores between the HAGD and morphine groups"}, {"measurement": "gastrointestinal transit (in words)", "setting": "[3]", "value": "significant delay compared with saline"}, {"measurement": "GIT%", "setting": "[3]", "value": "44.83 ± 4.14", "unit": "%"}, {"measurement": "endurance time on rotating rod (in words)", "setting": "[4]", "value": "no significant difference in the endurance time"}, {"measurement": "BBB permeability", "setting": "[5]", "value": "poor BBB permeability; also recorded: poor ability of HAGD to penetrate the BBB into the CNS"}, {"measurement": "half-life in brain homogenate", "setting": "[6]", "value": "4.3288 ± 0.6835", "unit": "h"}, {"measurement": "sperm progressive motility (PR), HAGD (in words)", "setting": "[7]", "value": "did not produce significant changes in sperm PR; also recorded: did not have a significant negative effect on human sperm motility"}, {"measurement": "locomotor activity (in words)", "setting": "[8]", "value": "did not show an apparent effect on locomotion compared with saline"}, {"measurement": "EC50", "setting": "[9]", "value": 2630, "unit": "nM"}, {"measurement": "Emax", "setting": "[9]; read-out: Emax ± S.E.M.", "value": "110 ± 7.21", "unit": "%"}, {"measurement": "antinociceptive tolerance", "setting": "[10]", "value": "non-tolerance antinociception for 8 consecutive days; also recorded: non-tolerance antinociception for eight consecutive days"}, {"measurement": "withdrawal response", "setting": "[11]", "value": "significant withdrawal response; also recorded: significant physical dependence"}]}, {"compound": "CN1CC[C@]23c4c5ccc(O)c4O[C@H]2[C@@H](O)C=C[C@H]3[C@H]1C5", "note": "[morphine]", "values": [{"measurement": "ED50", "setting": "[12]; mice, equivalent of the mg/kg value, read-out: antinociceptive ED50 (molar equivalent)", "value": 16.3, "unit": "µmol/kg"}, {"measurement": "ED50", "setting": "[12]; read-out: antinociceptive ED50", "value": 5.24, "unit": "mg/kg"}, {"measurement": "time of peak tail-flick latency", "setting": "[12]; s.c., mice", "value": 30, "unit": "min"}, {"measurement": "duration of anti-allodynic activity", "setting": "[13]; carrageenan-treated mice", "value": 60, "unit": "min"}, {"measurement": "time of peak anti-allodynic effect", "setting": "[13]; post-injection", "value": 30, "unit": "min"}, {"measurement": "average writhing number", "setting": "[14]; 1 mg/kg s.c., 5–15 min, mean ± S.E.M., saline 34 ± 2.49", "value": "4.60 ± 2.43"}, {"measurement": "inhibition of writhing response (in words)", "setting": "[14]; s.c.", "value": "inhibited the writhing response"}, {"measurement": "formalin test phase I response", "setting": "[15]; 10 mg/kg s.c., 5% formalin intraplantar, mean ± S.E.M., p < 0.05, lower = better", "value": "67.36 ± 3.93"}, {"measurement": "formalin-induced nociceptive responses, phases I and II (in words)", "setting": "[15]; s.c., morphine 10 mg/kg, phase II 15–30 min", "value": "attenuated nociceptive responses in both phases I and II"}, {"measurement": "conditioned place preference (in words)", "setting": "[2]", "value": "significant place preference change"}, {"measurement": "conditioned place preference score", "setting": "[2]; mean ± S.E.M.", "value": "140.50 ± 43.96"}, {"measurement": "gastrointestinal transit (in words)", "setting": "[3]", "value": "significantly weakened the GIT and exhibited a greater inhibitory effect than HAGD"}, {"measurement": "GIT%", "setting": "[3]", "value": "24.11 ± 3.79", "unit": "%"}, {"measurement": "locomotor activity (in words)", "setting": "[8]", "value": "enhanced the locomotor activity of mice and significantly increased the total distance traveled compared with saline or HAGD"}, {"measurement": "antinociceptive tolerance", "setting": "[10]", "value": "decreased significantly from days 5 to 8; also recorded: produced antinociceptive tolerance in the tail-flick test"}, {"measurement": "withdrawal response", "setting": "[11]", "value": "significant withdrawal response; also recorded: significant physical dependence"}]}, {"compound": "C=CC[N+]1(C)CC[C@]23c4c5ccc(O)c4O[C@H]2C(=O)CC[C@@]3(O)[C@H]1C5", "note": "(stereo partly shown) [naloxone methiodide]", "values": [{"measurement": "Ki", "setting": "[16]", "value": 28.9, "unit": "nM"}, {"measurement": "Ki", "setting": "[17]", "value": 1010, "unit": "nM"}, {"measurement": "Ki", "setting": "[18]", "value": 204, "unit": "nM"}, {"measurement": "Antagonist (receptors)", "setting": "[19]", "value": "MOR DOR KOR"}, {"measurement": "peripheral restriction", "setting": "[20]; opioid receptor antagonist", "value": "peripherally restricted"}]}, {"compound": "Oc1ccc2c3c1O[C@H]1c4[nH]c5ccccc5c4C[C@@]4(O)[C@@H](C2)N(CC2CC2)CC[C@]314", "note": "[naltrindole]", "values": [{"measurement": "Ki", "setting": "[17]", "value": 0.02, "unit": "nM"}, {"measurement": "Antagonist (receptors)", "setting": "[19]", "value": "DOR"}]}, {"compound": "Oc1ccc2c3c1O[C@H]1c4[nH]c5c(c4C[C@@]4(O)[C@@H](C2)N(CC2CC2)CC[C@]314)C[C@@]1(O)[C@H]2Cc3ccc(O)c4c3[C@@]1(CCN2CC1CC1)[C@H]5O4", "note": "[nor-binaltorphimine]", "values": [{"measurement": "Antagonist (receptors)", "setting": "[19]", "value": "KOR"}]}, {"compound": "COC(=O)/C=C/C(=O)N[C@@H]1CC[C@@]2(O)[C@H]3Cc4ccc(O)c5c4[C@@]2(CCN3CC2CC2)[C@H]1O5", "note": "[β-funaltrexamine]", "values": [{"measurement": "Ki", "setting": "[16]; binds covalently to MOR", "value": 0.3, "unit": "nM"}, {"measurement": "Antagonist (receptors)", "setting": "[19]", "value": "The inhibition constant (Ki) represented the agonist or antagonist affinity. ^a Drug dosage was in mg/kg (or µmol/kg) for each animal (subcutaneously). ^b β-funaltrexamine binds covalently to MOR. MOR, mu opioid receptor; DOR, delta opioid receptor; KOR, kappa opioid receptor. nM, nmol/L; also recorded: MOR ^b"}]}, {"compound": "Tyr1-Pro2-Phe3-Phe4-NH2 [endomorphin-2]", "values": [{"measurement": "selectivity for MOR", "setting": "[16]", "value": "highly selective for MORs"}, {"measurement": "antinociception compared with morphine", "setting": "[21]", "value": "more potent and prolonged antinociception than morphine in mice"}]}, {"compound": "Tyr1-Pro2-Trp3-Phe4-NH2 [endomorphin-1]", "values": [{"measurement": "selectivity for MOR", "setting": "[16]", "value": "highly selective for MORs"}, {"measurement": "half-life in brain homogenate", "setting": "[6]", "value": "0.3923 ± 0.00417", "unit": "h"}, {"measurement": "antinociception compared with morphine", "setting": "[21]", "value": "more potent and prolonged antinociception than morphine in mice"}, {"measurement": "BBB crossing", "setting": "[20]; into the CNS as an analgesic", "value": "inability of endomorphin-1 to cross the blood–brain barrier (BBB)"}]}]}
